Values joined by “and” are separate entries in the source; they are usually repeats but may differ in a detail not shown here. Identical values can stand only once. Inconclusive results and toxic doses are left out. Rule as the data show it: active = T/C of 150% or more; inactive = T/C below 125%.
Tested on: L1210 leukemia ip in BDF1 mice, survival T/C
Assay: NCI In Vivo Anticancer Drug Screen. Data for tumor model L1210 Leukemia (intraperitoneal) in B6D2F1 (BDF1) mice
Conditions: endpoint: mean survival time, higher = longer survival
How it was run: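 Transplantable tumor model; survival measured in treated vs vehicle control mice. Value = treated/control.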

[1] = dose: 100.0 mg/kg/injection, schedule: Q01DX009 (ip), vehicle: Klucel (hydroxypropylcellulose) (HPC)
[2] = dose: 200.0 mg/kg/injection, schedule: Q01DX009 (ip), vehicle: Klucel (hydroxypropylcellulose) (HPC)
[3] = dose: 100.0 mg/kg/injection, schedule: Q04DX003 (ip), vehicle: Klucel (hydroxypropylcellulose) (HPC)
[4] = dose: 200.0 mg/kg/injection, schedule: Q04DX003 (ip), vehicle: Klucel (hydroxypropylcellulose) (HPC)
[5] = dose: 400.0 mg/kg/injection, schedule: Q01DX009 (ip), vehicle: Klucel (hydroxypropylcellulose) (HPC)
[6] = dose: 100.0 mg/kg/injection, schedule: Q01DX001 (ip), vehicle: saline
[7] = dose: 200.0 mg/kg/injection, schedule: Q01DX001 (ip), vehicle: saline
[8] = dose: 400.0 mg/kg/injection, schedule: Q01DX001 (ip), vehicle: saline
[9] = dose: 100.0 mg/kg/injection, schedule: Q04DX002 (ip), vehicle: Klucel (hydroxypropylcellulose) (HPC)

Measured: T/C

Nc1n[nH]c(=S)s1
inactive: dose: 46.0 mg/kg/injection, schedule: Q03HX032 (ip), vehicle: Klucel (hydroxypropylcellulose) (HPC) 102 % of control | dose: 70.0 mg/kg/injection, schedule: Q03HX032 (ip), vehicle: Klucel (hydroxypropylcellulose) (HPC) 105 % of control | [1] 95 % of control | dose: 105.0 mg/kg/injection, schedule: Q03HX032 (ip), vehicle: Klucel (hydroxypropylcellulose) (HPC) 108 % of control | dose: 158.0 mg/kg/injection, schedule: Q03HX032 (ip), vehicle: Klucel (hydroxypropylcellulose) (HPC) 106 % of control | dose: 183.0 mg/kg/injection, schedule: Q01DX015 (ip), vehicle: Klucel (hydroxypropylcellulose) (HPC) 108 % of control | [2] 117 % of control | dose: 236.0 mg/kg/injection, schedule: Q03HX032 (ip), vehicle: Klucel (hydroxypropylcellulose) (HPC) 114 % of control | dose: 264.0 mg/kg/injection, schedule: Q01DX015 (ip), vehicle: Klucel (hydroxypropylcellulose) (HPC) 115 % of control | dose: 394.0 mg/kg/injection, schedule: Q01DX015 (ip), vehicle: Klucel (hydroxypropylcellulose) (HPC) 116 % of control | dose: 440.0 mg/kg/injection, schedule: Q01DX001 (ip), vehicle: Klucel (hydroxypropylcellulose) (HPC) 101 % of control | dose: 670.0 mg/kg/injection, schedule: Q01DX001 (ip), vehicle: Klucel (hydroxypropylcellulose) (HPC) 94 % of control

Cc1cc(Cc2cccc[n+]2[O-])c2ccccc2n1
inactive: [3] 102 % of control | [4] 96 % of control

Cc1cccc(C)c1NC(=O)Nc1ccc(C(=O)O)c(O)c1
inactive: [1] 110 % of control | [2] 95 % of control | [5] 97 % of control

Cc1ccc(C2CCCN(C)O2)cc1 (stereo not drawn)
inactive: [6] 102 % of control | [7] 101 % of control | [8] 93 % of control

O=C(COc1cc(Cl)c(Cl)cc1Cl)Nc1cccc(O)c1
inactive: [1] 101 % of control | [2] 96 % of control | [5] 115 % of control

CCN(CC)CCOc1ccc(-c2ccccc2)cc1
active: dose: 100.0 mg/kg/injection, schedule: Q04DX003 (ip), vehicle: saline with Tween-80 277 % of control
inactive: dose: 50.0 mg/kg/injection, schedule: Q04DX003 (ip), vehicle: saline with Tween-80 98 % of control

OC1COC(n2cnc3c(=S)nc[nH]c32)C(O)C1O (stereo not drawn)
inactive: dose: 5.0 mg/kg/injection, schedule: Q01DX001 (ip), vehicle: saline 98 % of control | dose: 10.0 mg/kg/injection, schedule: Q01DX001 (ip), vehicle: saline 102 % of control | dose: 20.0 mg/kg/injection, schedule: Q01DX001 (ip), vehicle: saline 98 % of control | dose: 40.0 mg/kg/injection, schedule: Q01DX001 (ip), vehicle: saline 96 % of control | dose: 50.0 mg/kg/injection, schedule: Q01DX001 (ip), vehicle: saline 115 % of control | dose: 80.0 mg/kg/injection, schedule: Q01DX001 (ip), vehicle: saline 98 % of control | [6] 105 % of control and 100 % of control | [7] 111 % of control and 100 % of control and 101 % of control | [8] 101 % of control and 103 % of control

Cc1cc(OC(=O)Nc2cc(C(F)(F)F)ccc2Cl)ccc1Cl
inactive: [1] 98 % of control | [2] 104 % of control | [5] 95 % of control

CC1=C(Cl)C(=N\S(=O)(=O)c2ccccc2)/c2ccccc2/C1=N/S(=O)(=O)c1ccccc1
inactive: dose: 100.0 mg/kg/injection, schedule: Q01DX001 (ip), vehicle: saline sonified 101 % of control | dose: 200.0 mg/kg/injection, schedule: Q01DX001 (ip), vehicle: saline sonified 100 % of control | dose: 400.0 mg/kg/injection, schedule: Q01DX001 (ip), vehicle: saline sonified 102 % of control

Nc1ncnc2nc(-c3ccc(C(=O)c4cccc(NC(=O)Nc5ccc(S(=O)(=O)F)cc5)c4)cc3)[nH]c12
inactive: dose: 37.5 mg/kg/injection, schedule: Q01DX001 (ip), vehicle: saline 95 % of control | dose: 75.0 mg/kg/injection, schedule: Q01DX001 (ip), vehicle: saline 92 % of control | dose: 150.0 mg/kg/injection, schedule: Q01DX001 (ip), vehicle: saline 90 % of control

Cc1csc2nc(-c3ccccc3)[nH]c(=O)c12
inactive: dose: 75.0 mg/kg/injection, schedule: Q01DX001 (ip), vehicle: saline sonified 86 % of control | dose: 150.0 mg/kg/injection, schedule: Q01DX001 (ip), vehicle: saline sonified 101 % of control | dose: 300.0 mg/kg/injection, schedule: Q01DX001 (ip), vehicle: saline sonified 107 % of control

c1ccc(N2CCN(c3ccccc3)CC2)cc1
inactive: dose: 100.0 mg/kg/injection, schedule: Q01DX009 (ip), vehicle: saline with Tween-80 98 % of control | dose: 200.0 mg/kg/injection, schedule: Q01DX009 (ip), vehicle: saline with Tween-80 86 % of control

CN(Cc1cccc(Cl)c1)C(=O)NC(C)(C)C
inactive: [9] 100 % of control | dose: 200.0 mg/kg/injection, schedule: Q04DX002 (ip), vehicle: Klucel (hydroxypropylcellulose) (HPC) 96 % of control | dose: 400.0 mg/kg/injection, schedule: Q04DX002 (ip), vehicle: Klucel (hydroxypropylcellulose) (HPC) 100 % of control

Cc1nc(N)[nH]c(=O)c1CCCNC(=O)c1ccc(C(=O)O)cc1
inactive: dose: 25.0 mg/kg/injection, schedule: Q01DX001 (ip), vehicle: saline with Tween-80 90 % of control | dose: 50.0 mg/kg/injection, schedule: Q01DX001 (ip), vehicle: saline with Tween-80 97 % of control | dose: 100.0 mg/kg/injection, schedule: Q01DX001 (ip), vehicle: saline with Tween-80 93 % of control

CCCCCC1(C=O)C(=O)NC(=O)N1C (stereo not drawn)
inactive: [6] 102 % of control | [7] 93 % of control | [8] 87 % of control

COc1c(C)ccc(/C=N/NC(=O)c2ccncc2)c1C
inactive: dose: 100.0 mg/kg/injection, schedule: Q04DX002 (ip), vehicle: carboxymethylcellulose (CMC) 95 % of control | dose: 200.0 mg/kg/injection, schedule: Q04DX002 (ip), vehicle: carboxymethylcellulose (CMC) 95 % of control | dose: 400.0 mg/kg/injection, schedule: Q04DX002 (ip), vehicle: carboxymethylcellulose (CMC) 92 % of control

O=C(Nc1cccc(Cl)c1Cl)OCCN1CCNC1=S
inactive: dose: 100.0 mg/kg/injection, schedule: Q01DX009 (ip), vehicle: saline 94 % of control | dose: 200.0 mg/kg/injection, schedule: Q01DX009 (ip), vehicle: saline 96 % of control | dose: 400.0 mg/kg/injection, schedule: Q01DX009 (ip), vehicle: saline 102 % of control

O=C1NC(=O)C2(CCc3ccccc32)N1 (stereo not drawn)
inactive: dose: 50.0 mg/kg/injection, schedule: Q01DX009 (ip), vehicle: Klucel (hydroxypropylcellulose) (HPC) 105 % of control | [1] 100 % of control | [3] 108 % of control | [2] 98 % of control | [4] 100 % of control | dose: 400.0 mg/kg/injection, schedule: Q04DX003 (ip), vehicle: Klucel (hydroxypropylcellulose) (HPC) 94 % of control

CN=C(N)c1ccc(C(=O)OCCOC)cc1
inactive: [6] 96 % of control | [7] 107 % of control | [8] 105 % of control

CN1CCN(P(c2ccccc2)N2CCN(C)CC2)CC1
inactive: dose: 100.0 mg/kg/injection, schedule: Q04DX002 (ip), vehicle: saline with Tween-80 107 % of control | dose: 200.0 mg/kg/injection, schedule: Q04DX002 (ip), vehicle: saline with Tween-80 103 % of control | dose: 400.0 mg/kg/injection, schedule: Q04DX002 (ip), vehicle: saline with Tween-80 95 % of control

CC(C)(C)c1ccc(CBr)cc1
inactive: dose: 25.0 mg/kg/injection, schedule: Q04DX002 (ip), vehicle: Klucel (hydroxypropylcellulose) (HPC) 102 % of control | dose: 50.0 mg/kg/injection, schedule: Q04DX002 (ip), vehicle: Klucel (hydroxypropylcellulose) (HPC) 94 % of control | [9] 94 % of control

CCSCC1C=CC(n2cnc3c(N)ncnc32)O1 (stereo not drawn)
inactive: dose: 50.0 mg/kg/injection, schedule: Q01DX001 (ip), vehicle: carboxymethylcellulose (CMC) 109 % of control | dose: 100.0 mg/kg/injection, schedule: Q01DX001 (ip), vehicle: carboxymethylcellulose (CMC) 109 % of control | dose: 200.0 mg/kg/injection, schedule: Q01DX001 (ip), vehicle: carboxymethylcellulose (CMC) 98 % of control | dose: 400.0 mg/kg/injection, schedule: Q01DX001 (ip), vehicle: carboxymethylcellulose (CMC) 109 % of control

CCCCCCCCCCCCCCCCOC(=O)CC(=O)OCCCCCCCCCCCCCCCC
inactive: dose: 100.0 mg/kg/injection, schedule: Q01DX001 (ip), vehicle: other 86 % of control | dose: 200.0 mg/kg/injection, schedule: Q01DX001 (ip), vehicle: other 100 % of control | dose: 400.0 mg/kg/injection, schedule: Q01DX001 (ip), vehicle: other 108 % of control

CC(C)NNC(=O)c1ccc(N)cc1
inactive: dose: 100.0 mg/kg/injection, schedule: Q04DX003 (ip), vehicle: saline 105 % of control | dose: 200.0 mg/kg/injection, schedule: Q04DX003 (ip), vehicle: saline 113 % of control | dose: 400.0 mg/kg/injection, schedule: Q04DX003 (ip), vehicle: saline 108 % of control

Source: PubChem BioAssay AID248 (DTP/NCI, 2004)
